According to patent publication US20130071328A1, “Propynoic Acid Carbamoyl Methyl-Amides and Pharmaceutical Compositions and Methods Based Thereon” (UNIVERSITY OF SOUTHERN CALIFORNIA, priority 2011, published 2013):

Columns and labels:
[1] = tested on: HT29 colon cancer cell line; test: MTT cytotoxicity assay, HT29; assay type: cell-based; settings: Homo sapiens, HT-29, 72 h exposure
Source text: (§1) The human breast cancer cell line MDA-MB-435 and the colon cancer cell line HT29 were purchased from the American Type Cell Culture (Manassas, Va.). Colon cancer cell lines HCT116 p53^+/+ and HCT116 p53^−/− were kindly provided by Dr. Bert Vogelstein (Johns Hopkins Medical Institutions, Baltimore, Md.). The human ovarian carcinoma cell line (HEY), naturally resistant to cisplatin (CDDP), was kindly provided by Dr. Louis Dubeau (USC Norris Cancer Center). The bladder cancer cell lines were kindly provided by Dr. Richard Cote (USC Keck School of Medicine). Cells were maintained as monolayer cultures in the appropriate media: RPMI-1640 (HT29, HCT116 p53^+/+, HCT116 p53^−/−, and HEY cell lines) or DMEM (MDA-MB-435 and UMUC3 cell lines) supplemented with 10% fetal bovine serum (FBS) (HyClone, Road Logan, Utah) at 37° C. in a humidified atmosphere of 5% CO2. To remove the adherent cells from the flask for subculture and counting, cells were washed with PBS without calcium or magnesium, incubated with a small volume of 1×trypsin-EDTA solution (Sigma-Aldrich, St. Louis, Mo.) for 5 min, resuspended with fresh culture medium, and centrifuged at 1200 rpm for 5 min. All experiments were performed using cells in exponential growth phase. Cells were routinely checked for Mycoplasma contamination using PlasmaTest kit (InvivoGen, San Diego, Calif.).
(§2) Cytotoxicity was assessed by MTT assay as described previously. 43 In brief, cells were seeded in 96-well microtiter plates and allowed to attach overnight. Cells were subsequently treated with continuous exposure to corresponding drugs for 72 h. At the end of treatments, an MTT solution (at a final concentration of 0.5 mg/mL) was added to each well, and cells were incubated for 4 h at 37° C. After removal of the supernatant, DMSO was added, and the absorbance was read at 570 nm. All assays were done in triplicate. The IC50 was then determined for each drug from a plot of log(drug concentration) versus percentage of cells killed.

[2] = tested on: HCT116 p53^+/+ colon cancer cell line; test: MTT cytotoxicity assay, HCT116 p53+/+; assay type: cell-based; settings: Homo sapiens, HCT-116, 72 h exposure
Source text: as §1, §2

[3] = tested on: HCT116 p53^−/− colon cancer cell line; test: MTT cytotoxicity assay, HCT116 p53-/-; assay type: cell-based; settings: Homo sapiens, HCT-116, 72 h exposure
Source text: as §1, §2

[4] = tested on: HEY ovarian cancer cell line; test: Cytotoxicity assay, HEY; assay type: cell-based; settings: Homo sapiens
Source text: as §1, §2

[5] = tested on: MDA-MB-435 breast cancer cell line; test: MTT cytotoxicity assay, MDA-MB-435; assay type: cell-based, human; settings: Homo sapiens, MDA-MB-435, 72 h, 72 h exposure
Source text: as §1, §2

[6] = tested on: UMUC3 bladder cancer cell line; test: MTT cytotoxicity assay, UMUC3; assay type: cell-based; settings: Homo sapiens, 72 h exposure
Source text: as §1, §2

[7] = tested on: 5637 bladder cancer cell line; test: MTT cytotoxicity assay, 5637; assay type: cell-based, human; settings: Homo sapiens, 72 h exposure
Source text: as §1, §2

[8] = tested on: doxorubicin-resistant NCI/ADR-RES ovarian cancer cell line; test: Cytotoxicity assay, NCI/ADR-RES; assay type: cell-based; settings: Homo sapiens
Procedure: as §2

[9] = tested on: OVCAR8 ovarian cancer cell line; test: In vitro cytotoxicity, OVCAR8; assay type: cell-based; settings: Homo sapiens, OVCAR-8; Table 4, ovarian cancer panel
Procedure: as §2

[10] = tested on: OVCAR3 ovarian cancer cell line; test: In vitro cytotoxicity, OVCAR3; assay type: cell-based; settings: Homo sapiens, OVCAR-3; Table 4, ovarian cancer panel
Procedure: as §2

SMILES	IC50 [1] [µM]	IC50 [2] [µM]	IC50 [3] [µM]	IC50 ([4]; MTT, 72 h exposure (Table 2)) [µM]	IC50 [5] [µM]	IC50 [6] [µM]	IC50 [7] [µM]	IC50 ([8]; MTT, 72 h exposure (Table 2)) [µM]	IC50 ([8]; Table 4, ovarian cancer panel) [µM]	IC50 [9] [µM]	IC50 [10] [µM]	IC50 ([4]; Table 4, ovarian cancer panel) [µM]
C#CC(=O)N(c1ccccc1F)C(C(=O)NC1CCCCC1)c1ccccc1F (stereo not shown) [Compound 19, N-[2-(Cyclohexylamino)-1-(2-fluorophenyl)-2-oxoethyl]-N-(2-fluorophenyl)Propynamide]	7.7 ± 0.5	11.9 ± 0.1	10.1 ± 2.9	5.6 ± 2.1	6.5 ± 2.1	> 20	2.1	0.4 ± 0.1				
C#CC(=O)N(c1ccc2c(c1)OCCO2)C(C(=O)NC1CCCC1)c1ccccc1 (stereo not shown) [Compound 8, N-[2-(Cyclopentylamino)-2-oxo-1-phenylethyl]-N-(2,3-dihydro-1,4-benzodioxin-6-yl)Propynamide]	3.2 ± 1.2	17.3 ± 1.1	> 20	4.1 ± 3.4	1.8 ± 0.6	> 20	1.9 ± 0.6	0.3				
C#CC(=O)N(c1cc(OC)cc(OC)c1)C(C(=O)NC1CCCCC1)c1ccc(OC)c(O)c1 (stereo not shown) [Compound 35]									5.5	2.9	7.5	
C#CC(=O)N(C)C(C(=O)NC1CCCC1)c1cccs1 (stereo not shown) [Compound 25]									0.32	2.2	0.53	
C#CC(=O)N(c1ccc(OC)cc1OC)C(C(=O)NCC(=O)OCC)c1cccs1 (stereo not shown) [Compound 38]									2.6 ± 1.5	2.8 ± 0.7	0.32	
C#CC(=O)N(c1ccc(-n2cnnn2)c(C)c1)C(C(=O)NC1CCCC1)c1cccnc1 (stereo not shown) [Compound 31]									2.5	1.5	2.5	
C#CC(=O)N(CC(=O)NC1CCCC1)c1ccc(-n2cnnn2)c(C)c1 [Compound 30]									1.8	10	3	
C#CC(=O)N(c1ccc(O)cc1OC)C(C(=O)NCC(=O)OCC)c1cccs1 (stereo not shown) [Compound 40]									12.8 ± 3.8	10.4 ± 1.6		
C#CC(=O)N(c1ccc(OC)cc1OC)C(C(=O)NCC(=O)OCC)c1ccccc1 (stereo not shown) [Compound 41]										0.4 ± 0.2		
C#CC(=O)N(c1ccc(OC)c(OC)c1)C(C(=O)NC1CCCC1)c1cccs1 (stereo not shown) [Compound 3, N-[2-(Cyclopentylamino)-2-oxo-1-thien-2-ylethyl]-N-(3,4-dimethoxyphenyl)Propynamide]	5.5 ± 4.2	7.7 ± 1.9	9.6 ± 4.9	3.4 ± 1.5	2 ± 0.1	> 20	2 ± 0.7	0.9 ± 0.8				
C#CC(=O)N(Cc1ccc2c(c1)OCO2)C(C(=O)NCc1ccccc1)c1ccccc1F (stereo not shown) [Compound 15, N-(1,3-Benzodioxol-5-ylmethyl)-N-[2-(benzylamino)-1-(2-fluorophenyl)-2-oxoethyl]Propynamide]	> 10	> 10	> 20	> 10	> 10	> 20	2.8 ± 1.1	1.3 ± 1				
C#CC(=O)N(CC(=O)NC1CCCC1)c1ccc(OC)cc1OC [Compound 28]									0.02	0.52	0.23	
C#CC(=O)N(CC(=O)NCC(=O)OCC)c1ccc(OC)cc1OC [Compound 43]									0.14	2.2	0.3	
C#CC(=O)N(Cc1ccc(OC)cc1OC)C(C(=O)NCC(=O)OCC)c1ccccc1 (stereo not shown) [Compound 42]										3.4 ± 0.4		
C#CC(=O)N(Cc1ccco1)C(C(=O)NC1CCCC1)c1ccccc1F (stereo not shown) [Compound 10, N-[2-(Cyclopentylamino)-1-(2-fluorophenyl)-2-oxoethyl]-N-(2-furylmethyl)Propynamide]	> 10	10.5	13 ± 2.8	4.3 ± 3.9	1.7 ± 0.6	> 20	2.9 ± 0.8	1.2 ± 0.4				
C#CC(=O)N(Cc1ccccc1Cl)C(C(=O)NC1CCCC1)c1ccccc1 (stereo not shown) [Compound 17, N-(2-Chlorobenzyl)-N-[2-(cyclopentylamino)-2-oxo-1-phenylethyl]Propynamide]	5.4 ± 3	7.7 ± 0.5	7.3 ± 1.4	5.8 ± 1.3	8.2 ± 0.2	> 20	1.8 ± 0.1	2.2 ± 0.2				
C#CC(=O)N(c1cccc(C(F)(F)F)c1)C(C(=O)NCc1ccccc1)c1cccs1 (stereo not shown) [Compound 16, N-[2-(Benzylamino)-2-oxo-1-thien-2-ylethyl]-N-[3-(trifluoromethyl)-phenyl]Propynamide]	7.3 ± 0.3	9 ± 1.4	16.1 ± 5.6	7.1 ± 2.6	4.2 ± 3	> 20	1.2 ± 1.1	0.7 ± 0.6				
C#CC(=O)N(c1cccc(OC)c1)C(C(=O)NC1CCCC1)c1cccs1 (stereo not shown) [Compound 6, N-[2-(Cyclopentylamino)-2-oxo-1-thien-2-ylethyl]-N-(3-methoxyphenyl)Propynamide]	2.3 ± 0.3	7.2 ± 0.2	5.6 ± 0.8	1.9 ± 0.7		6.9 ± 1.2	0.3	0.3				
C#CC(=O)N(c1cc(OC)cc(OC)c1)C(C(=O)NC1CCCC1)c1ccc(OC)cc1 (stereo not shown) [Compound 11, N-[2-(Cyclopentylamino)-1-(4-methoxyphenyl)-2-oxoethyl]-N-(3,5-dimethoxyphenyl)Propynamide]	2.1 ± 0.4	15	> 20	2.3 ± 0.4	2.4 ± 0.1	> 20	1.9 ± 0.6	0.3				
C#CC(=O)N(CC(N)=O)c1ccc(OC)cc1OC [Compound 29]										0.5 ± 0.3		
C#CC(=O)N(c1cc(OC)ccc1OC)C(C(=O)NC1CCCC1)c1cccs1 (stereo not shown) [Compound 7, N-[2-(Cyclopentylamino)-2-oxo-1-thien-2-ylethyl]-N-(2,5-dimethoxyphenyl)Propynamide]	1.6 ± 1	5.7 ± 0.6	4.7 ± 2.3	1.5 ± 1.1	0.5 ± 0.3	5.7 ± 1.5	0.3	0.3				
C#CC(=O)N(c1ccc(OC)cc1OC)C(C(=O)NC1CCCC1)c1cccs1 (stereo not shown) [Compound 5, N-[2-(Cyclopentylamino)-2-oxo-1-thien-2-ylethyl]-N-(2,4-dimethoxyphenyl)Propynamide]	2.3 ± 0.3	6.9 ± 0.6	7 ± 0.7	4.1 ± 3.4	1.7 ± 0.5	> 20	1.7 ± 0.8	0.4				
C#CC(=O)N(c1cccc(C(F)(F)F)c1)C(C(=O)NC1CCCCC1)c1cccs1 (stereo not shown) [Compound 13, N-[2-(Cyclohexylamino)-2-oxo-1-thien-2-ylethyl]-N-[3-(trifluoromethyl)phenyl]Propynamide]	6 ± 1.4	8.3 ± 1.1	10.4 ± 0.2	5.2 ± 3.6	6.9 ± 0.8	> 20	1.6 ± 0.7	0.4				
C#CC(=O)N(c1ccc(-n2cnnn2)c(C)c1)C(C(=O)NCC(=O)OCC)c1ccccc1F (stereo not shown) [Compound 20]									1.3	0.2		
C#CC(=O)N(c1cccc(C(F)(F)F)c1)C(C(=O)NC1CCCC1)c1ccc(F)cc1 (stereo not shown) [Compound 12, N-[2-(Cyclopentylamino)-1-(4-fluorophenyl)-2-oxoethyl]-N-[3-(trifluoromethyl)phenyl]Propynamide]	4.8 ± 3.2	7.5 ± 0.7	6.9 ± 0.6	2.4 ± 0.2	5.2 ± 1.2	8 ± 1.4	0.5 ± 0.3	0.4				
C#CC(=O)N(c1ccc2ccccc2c1)C(C(=O)NC1CCCC1)c1ccccc1 (stereo not shown) [Compound 14, N-[2-(Cyclopentylamino)-2-oxo-1-phenylethyl]-N-(2-naphthyl)Propynamide]	4.9 ± 3.4	6.8 ± 1.8	7.4 ± 0.8	1.7 ± 1.1	7.3	> 20	0.5 ± 0.3	0.3				
C#CC(=O)N(c1ccc(OC)cc1OC)C(C(=O)NCC(=O)NCCN1CCOCC1)c1cccs1 (stereo not shown) [Compound 45]									> 10	5		0.32
